Where a name gives a salt, the structure may show the parent alone.
molecular target: PAPD5 enzyme (Homo sapiens, UniProt Q8NDF8); assay: PAPD5 assay (AMP incorporation onto 3'-terminus of RNA substrate, fluorescence quench); format: biochemical; conditions: PAPD5 protein 0.3 nM, ATP 50 μM, 30 minutes preincubation, room temperature; read-out: Potency PAPD5 IC50
How it was run: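 Enzyme at 0.3 nM with 50 μM ATP, pH 7.3 HEPES buffer, preincubated with compound 30 minutes at room temperature; 5 nM 5′-fluorescein RNA substrate and 20 nM TAMRA quench probe then added. Initial rates from kinetic fluorescein decrease over ~90 minutes; IC50 by four-parameter fit.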

PAPD5 enzyme, sequence (Q8NDF8 whole entry): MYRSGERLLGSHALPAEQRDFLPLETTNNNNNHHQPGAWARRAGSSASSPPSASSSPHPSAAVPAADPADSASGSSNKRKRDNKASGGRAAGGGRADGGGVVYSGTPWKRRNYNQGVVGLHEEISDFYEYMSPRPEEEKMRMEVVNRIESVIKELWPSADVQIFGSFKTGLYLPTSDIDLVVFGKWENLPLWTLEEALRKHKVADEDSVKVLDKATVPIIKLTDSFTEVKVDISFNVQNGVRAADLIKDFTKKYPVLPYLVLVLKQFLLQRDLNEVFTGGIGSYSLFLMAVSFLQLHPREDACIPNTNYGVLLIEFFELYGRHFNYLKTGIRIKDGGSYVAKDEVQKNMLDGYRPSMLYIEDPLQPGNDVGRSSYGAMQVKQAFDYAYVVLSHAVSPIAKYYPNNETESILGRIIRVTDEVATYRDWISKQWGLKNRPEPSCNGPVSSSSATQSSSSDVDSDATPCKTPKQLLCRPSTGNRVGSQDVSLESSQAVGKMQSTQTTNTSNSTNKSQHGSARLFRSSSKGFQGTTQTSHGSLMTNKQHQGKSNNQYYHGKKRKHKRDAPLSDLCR

SMILES	IC50
O=C(O)c1cn(Cc2c[nH]cn2)c2cc(N3Cc4cccnc4C3)c(Cl)cc2c1=O [Example 85, 1-((1H-imidazol-4-yl)methyl)-6-chloro-7-(5,7-dihydro-6H-pyrrolo[3,4-b]pyridin-6-yl)-4-oxo-1,4-dihydroquinoline-3-carboxylic acid]	≤ 1000 nM
CNc1cc(C)c(-n2cc(C(=O)O)c(=O)c3cc(F)c(N4Cc5cccnc5C4)cc32)cn1 [Example 87, 7-(5,7-dihydro-6H-pyrrolo[3,4-b]pyridin-6-yl)-6-fluoro-1-(4-methyl-6-(methylamino)pyridin-3-yl)-4-oxo-1,4-dihydroquinoline-3-carboxylic acid]	≤ 1000 nM
CCOC(=O)c1cn(-c2ccc(Cl)nc2)c2cc(N3Cc4cccnc4C3)c(Cl)cc2c1=O [Example 90, Ethyl 6-chloro-1-(6-chloropyridin-3-yl)-7-(5,7-dihydro-6H-pyrrolo[3,4-b]pyridin-6-yl)-4-oxo-1,4-dihydroquinoline-3-carboxylate]	≤ 1000 nM
Cc1cc(N2CCC2)ncc1-n1cc(C(=O)O)c(=O)c2cc(Cl)c(N3Cc4cccnc4C3)nc21 [Example 91, 1-(6-(azetidin-1-yl)-4-methylpyridin-3-yl)-6-chloro-7-(5,7-dihydro-6H-pyrrolo[3,4-b]pyridin-6-yl)-4-oxo-1,4-dihydro-1,8-naphthyridine-3-carboxylic acid]	≤ 1000 nM
COCCN(C)c1ccn(-c2nc3c(cc2Cl)c(=O)c(C(=O)O)cn3-c2ccc(N)nc2)n1 [Example 95, 1-(6-aminopyridin-3-yl)-6-chloro-7-(3-((2-methoxyethyl)(methyl)amino)-1H-pyrazol-1-yl)-4-oxo-1,4-dihydro-1,8-naphthyridine-3-carboxylic acid]	≤ 1000 nM
N#Cc1cc2c(=O)c(C(=O)O)cn(-c3cnc(N)cn3)c2cc1N1Cc2cccnc2C1 [Example 96, 1-(5-aminopyrazin-2-yl)-6-cyano-7-(5,7-dihydro-6H-pyrrolo[3,4-b]pyridin-6-yl)-4-oxo-1,4-dihydroquinoline-3-carboxylic acid]	≤ 1000 nM
O=C(O)c1cn(C2CCOCC2)c2nc(N3Cc4cccnc4C3)c(Cl)cc2c1=O [Example 101, 6-chloro-7-(5,7-dihydro-6H-pyrrolo[3,4-b]pyridin-6-yl)-4-oxo-1-(tetrahydro-2H-pyran-4-yl)-1,4-dihydro-1,8-naphthyridine-3-carboxylic acid]	≤ 1000 nM
Cc1cc(NC(=O)N2CCOCC2)ncc1-n1cc(C(=O)O)c(=O)c2cc(Cl)c(N3Cc4cccnc4C3)cc21 [Example 115, 6-chloro-7-(5,7-dihydro-6H-pyrrolo[3,4-b]pyridin-6-yl)-1-(4-methyl-6-(morpholine-4-carboxamido)pyridin-3-yl)-4-oxo-1,4-dihydroquinoline-3-carboxylic acid]	≤ 1000 nM
Cc1cc(NC(=O)N(C)C)ncc1-n1cc(C(=O)O)c(=O)c2cc(Cl)c(N3Cc4cccnc4C3)cc21 [Example 116, 6-chloro-7-(5,7-dihydro-6H-pyrrolo[3,4-b]pyridin-6-yl)-1-(6-(3,3-dimethylureido)-4-methylpyridin-3-yl)-4-oxo-1,4-dihydroquinoline-3-carboxylic acid]	≤ 1000 nM
Nc1cc(C2CC2)c(-n2cc(C(=O)O)c(=O)c3cc(Cl)c(N4Cc5cccnc5C4)cc32)cn1 [Example 118, 1-(6-amino-4-cyclopropylpyridin-3-yl)-6-chloro-7-(5,7-dihydro-6H-pyrrolo[3,4-b]pyridin-6-yl)-4-oxo-1,4-dihydroquinoline-3-carboxylic acid]	≤ 1000 nM
O=C(O)c1cn(CC2CCNCC2)c2cc(N3Cc4cccnc4C3)c(Cl)cc2c1=O [Example 119, 6-chloro-7-(5,7-dihydro-6H-pyrrolo[3,4-b]pyridin-6-yl)-4-oxo-1-(piperidin-4-ylmethyl)-1,4-dihydroquinoline-3-carboxylic acid hydrochloride]	≤ 1000 nM
CN1CCC(Cn2cc(C(=O)O)c(=O)c3cc(Cl)c(N4Cc5cccnc5C4)cc32)CC1 [Example 120, 6-chloro-7-(5,7-dihydro-6H-pyrrolo[3,4-b]pyridin-6-yl)-1-((1-methylpiperidin-4-yl)methyl)-4-oxo-1,4-dihydroquinoline-3-carboxylic acid]	≤ 1000 nM
CN1CCC(n2cc(C(=O)O)c(=O)c3cc(Cl)c(N4Cc5cccnc5C4)cc32)CC1 [Example 121, 6-chloro-7-(5,7-dihydro-6H-pyrrolo[3,4-b]pyridin-6-yl)-1-(1-methylpiperidin-4-yl)-4-oxo-1,4-dihydroquinoline-3-carboxylic acid]	≤ 1000 nM
CC(=O)N1CCC(Cn2cc(C(=O)O)c(=O)c3cc(Cl)c(N4Cc5cccnc5C4)cc32)CC1 [Example 122, 1-((1-acetylpiperidin-4-yl)methyl)-6-chloro-7-(5,7-dihydro-6H-pyrrolo[3,4-b]pyridin-6-yl)-4-oxo-1,4-dihydroquinoline-3-carboxylic acid]	≤ 1000 nM
Cn1cc(Cn2cc(C(=O)O)c(=O)c3cc(Cl)c(N4Cc5cccnc5C4)cc32)cn1 [Example 124, 6-chloro-7-(5,7-dihydro-6H-pyrrolo[3,4-b]pyridin-6-yl)-1-((1-methyl-1H-pyrazol-4-yl)methyl)-4-oxo-1,4-dihydroquinoline-3-carboxylic acid]	≤ 1000 nM
CN(C)C(=O)N1CCC(Cn2cc(C(=O)O)c(=O)c3cc(Cl)c(N4Cc5cccnc5C4)cc32)CC1 [Example 129, 6-chloro-7-(5,7-dihydro-6H-pyrrolo[3,4-b]pyridin-6-yl)-1-((1-(dimethylcarbamoyl)piperidin-4-yl)methyl)-4-oxo-1,4-dihydroquinoline-3-carboxylic acid]	≤ 1000 nM

The remaining lines, values ahead:

IC50	SMILES
≤ 1000 nM	Cc1cc(N(C)C)ncc1-n1cc(C(=O)O)c(=O)c2cc(F)c(N3Cc4cccnc4C3)cc21 [Example 86, 7-(5,7-dihydro-6H-pyrrolo[3,4-b]pyridin-6-yl)-1-(6-(dimethylamino)-4-methylpyridin-3-yl)-6-fluoro-4-oxo-1,4-dihydroquinoline-3-carboxylic acid]
≤ 1000 nM	CCOC(=O)c1cn(-c2ccc(O)nc2)c2cc(N3Cc4cccnc4C3)c(Cl)cc2c1=O [Example 88, Ethyl 6-chloro-1-(6-hydroxypyridin-3-yl)-4-oxo-7-{5H,7H-pyrrolo[3,4-b]pyridin-6-yl}quinoline-3-carboxylate]
≤ 1000 nM	CCOC(=O)c1cn(-c2ccc(N)nc2)c2cc(N3Cc4cccnc4C3)c(Cl)cc2c1=O [Example 89]
≤ 1000 nM	CN(CCO)c1ccn(-c2cc3c(cc2Cl)c(=O)c(C(=O)O)cn3-c2ccc(N)nc2)n1 [Example 92, 1-(6-aminopyridin-3-yl)-6-chloro-7-(3-((2-hydroxyethyl)(methyl)amino)-1H-pyrazol-1-yl)-4-oxo-1,4-dihydroquinoline-3-carboxylic acid]
≤ 1000 nM	CN(CCO)c1ccn(-c2nc3c(cc2Cl)c(=O)c(C(=O)O)cn3-c2ccc(N)nc2)n1 [Example 93, 1-(6-aminopyridin-3-yl)-6-chloro-7-(3-((2-hydroxyethyl)(methyl)amino)-1H-pyrazol-1-yl)-4-oxo-1,4-dihydro-1,8-naphthyridine-3-carboxylic acid]
≤ 1000 nM	COCCN(C)c1ccn(-c2cc3c(cc2Cl)c(=O)c(C(=O)O)cn3-c2ccc(N)nc2)n1 [Example 94, 1-(6-aminopyridin-3-yl)-6-chloro-7-(3-((2-methoxyethyl)(methyl)amino)-1H-pyrazol-1-yl)-4-oxo-1,4-dihydroquinoline-3-carboxylic acid]
≤ 1000 nM	COCCN1CCC(Cn2cc(C(=O)O)c(=O)c3cc(Cl)c(N4Cc5cccnc5C4)nc32)CC1 [Example 100, 6-chloro-7-(5,7-dihydro-6H-pyrrolo[3,4-b]pyridin-6-yl)-1-((1-(2-methoxyethyl)piperidin-4-yl)methyl)-4-oxo-1,4-dihydro-1,8-naphthyridine-3-carboxylic acid hydro chloride]
≤ 1000 nM	COc1cnc(-n2cc(C(=O)O)c(=O)c3cc(F)c(N4Cc5cccnc5C4)nc32)cn1 [Example 103, 7-(5,7-dihydro-6H-pyrrolo[3,4-b]pyridin-6-yl)-6-fluoro-1-(5-methoxypyrazin-2-yl)-4-oxo-1,4-dihydro-1,8-naphthyridine-3-carboxylic acid]
≤ 1000 nM	Cc1cc(NC(=O)C2CC2)ncc1-n1cc(C(=O)O)c(=O)c2cc(Cl)c(N3Cc4cccnc4C3)cc21 [Example 114, 6-chloro-1-(6-(cyclopropanecarboxamido)-4-methylpyridin-3-yl)-7-(5,7-dihydro-6H-pyrrolo[3,4-b]pyridin-6-yl)-4-oxo-1,4-dihydroquinoline-3-carboxylic acid]
≤ 1000 nM	CCc1cc(N)ncc1-n1cc(C(=O)O)c(=O)c2cc(Cl)c(N3Cc4cccnc4C3)cc21 [Example 117, 1-(6-amino-4-ethylpyridin-3-yl)-6-chloro-7-(5,7-dihydro-6H-pyrrolo[3,4-b]pyridin-6-yl)-4-oxo-1,4-dihydroquinoline-3-carboxylic acid]
≤ 1000 nM	O=C(O)c1cn(C2CCNCC2)c2cc(N3Cc4cccnc4C3)c(Cl)cc2c1=O [Example 123, 6-chloro-7-(5,7-dihydro-6H-pyrrolo[3,4-b]pyridin-6-yl)-4-oxo-1-(piperidin-4-yl)-1,4-dihydroquinoline-3-carboxylic acid hydrochloride]
≤ 1000 nM	COCCN1CCC(Cn2cc(C(=O)O)c(=O)c3cc(Cl)c(N4Cc5cccnc5C4)cc32)CC1 [Example 125, 6-chloro-7-(5,7-dihydro-6H-pyrrolo[3,4-b]pyridin-6-yl)-1-((1-(2-methoxyethyl)piperidin-4-yl)methyl)-4-oxo-1,4-dihydroquinoline-3-carboxylic acid hydrochloride]
≤ 1000 nM	CC(=O)N1CCC(n2cc(C(=O)O)c(=O)c3cc(Cl)c(N4Cc5cccnc5C4)cc32)CC1 [Example 126, 1-(1-acetylpiperidin-4-yl)-6-chloro-7-(5,7-dihydro-6H-pyrrolo[3,4-b]pyridin-6-yl)-4-oxo-1,4-dihydroquinoline-3-carboxylic acid]
